According to patent US7592373B2 (Boehringer Ingelheim International GmbH, priority 2003, dated 2009):
pIC50: −log10 of the molar value. Structures can show the parent of a compound that is named as a salt.

Molecular target: T1, hMCH-1R (Homo sapiens, UniProt Q99705)
T1 construct: expressed in transfected cells
Test: MCH-1 receptor binding test (125I-MCH binding to hMCH-1R transfected cell membranes)
Conditions: membranes of hMCH-1R transfected CHO/Galpha16 cells
Method: After the incubation the reaction is filtered using a cell harvester through 0.5% PEI treated fiberglass filters (GF/B, Unifilter Packard). The membrane-bound radioactivity retained on the filter is then determined after the addition of scintillator substance (Packard Microscint 20) in a measuring device (TopCount of Packard). […] The analysis of the concentration binding curve is carried out on the assumption of one receptor binding site.

T1 sequence (Q99705 whole entry): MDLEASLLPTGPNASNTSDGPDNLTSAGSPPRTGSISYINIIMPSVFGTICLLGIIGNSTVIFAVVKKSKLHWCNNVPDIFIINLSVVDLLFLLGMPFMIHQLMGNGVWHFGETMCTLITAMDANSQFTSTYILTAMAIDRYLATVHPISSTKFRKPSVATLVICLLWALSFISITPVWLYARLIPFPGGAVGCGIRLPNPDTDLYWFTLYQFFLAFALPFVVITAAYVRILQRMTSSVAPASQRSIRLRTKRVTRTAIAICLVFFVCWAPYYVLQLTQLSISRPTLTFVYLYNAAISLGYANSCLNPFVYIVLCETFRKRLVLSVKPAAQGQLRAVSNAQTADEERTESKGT

Q: With `COc1ccc(-c2ccc(NC(=O)/C=C/c3ccc(CN4CCCC4)cc3)cc2)cc1` [Example 5.1, (E)-N-(4′-methoxybiphenyl-4-yl)-3-(4-pyrrolidin-1-ylmethylphenyl)acrylamide] as the compound, how does the pIC50 read?
A: 7.70

Q: With `CN(C(=O)C#Cc1ccc(CN2CCCC2)cc1)c1ccc(-c2ccc(Cl)cc2)cc1` [Example 1.23, 3-(4-pyrrolidin-1-ylmethylphenyl)propynoic acid-(4′-chlorobiphenyl-4-yl)methylamide] as the compound, how does the pIC50 read?
A: 8.12

Q: With `CCN(CC)CCOc1ccc(NC(=O)C#Cc2ccc(Cl)cc2Cl)c(Cl)c1` [Example 4.8, 3-(2,4-dichlorophenyl)propynoic acid-[2-chloro-4-(2-diethylaminoethoxy)phenyl]amide] as the compound, how does the pIC50 read?
A: 7.30

Tested on: not given
Test: not given
Conditions: animals treated with the antagonist; cited from earlier work

Q: With `COCC1=C(C(=O)OC)[C@H](c2ccc(F)c(F)c2)N(C(=O)NCCCN2CCC(c3cccc(NC(C)=O)c3)CC2)C(=O)N1` [SNAP-7941] as the compound, how does the “body weight in long term trials” value read?
A: lose significant amounts of weight

Tested on: rats
Test: not given
Conditions: cited from earlier work

Q: Which “effects in behavioral experiments” value does the source give for `COCC1=C(C(=O)OC)[C@H](c2ccc(F)c(F)c2)N(C(=O)NCCCN2CCC(c3cccc(NC(C)=O)c3)CC2)C(=O)N1` [SNAP-7941] here?
A: anxiolytic and antidepressant effects

Tested on: not given
Test: not given
Conditions: not given

Q: Which melting point does the source give for `COc1ccc(-c2ccc(NC(=O)/C=C/c3ccc(CN4CCCC4)cc3)cc2)cc1` [Example 5.1, (E)-N-(4′-methoxybiphenyl-4-yl)-3-(4-pyrrolidin-1-ylmethylphenyl)acrylamide] here?
A: 199 to 200 °C

Q: For `CN(C(=O)C#Cc1ccc(CN2CCCC2)cc1)c1ccc(-c2ccc(Cl)cc2)cc1` [Example 1.23, 3-(4-pyrrolidin-1-ylmethylphenyl)propynoic acid-(4′-chlorobiphenyl-4-yl)methylamide], which melting point is on record?
A: 161 to 164 °C

Q: For `CC1CCN(Cc2ccc(/C=C/C(=O)Nc3ccc(-c4ccc(Cl)cc4)cc3)cc2)CC1` [Example 5.2, (E)-N-(4′-chlorobiphenyl-4-yl)-3-[4-(4-methylpiperidin-1-ylmethyl)phenyl]acrylamide], which melting point is on record?
A: 207 to 208 °C

Q: Which melting point does the source give for `O=C(/C=C/c1ccc(CN2CCCC2)cc1)Nc1ccc(-c2ccc(Cl)cc2)cc1` [Example 5.13, (E)-N-(4′-chlorobiphenyl-4-yl)-3-(4-pyrrolidin-1-ylmethylphenyl)acrylamide] here?
A: 219 °C

Q: With `O=C(C#Cc1ccc(CN2CCCC2)cc1)Nc1ccc(-c2ccc(Cl)cc2)cc1F` [Example 1.17, 3-(4-pyrrolidin-1-ylmethylphenyl)propynoic acid-(4′-chloro-3-fluorobiphenyl-4-yl)amide] as the compound, how does the melting point read?
A: 136 °C

Q: For `O=C(C#Cc1ccc(CCN2CCCC2)cc1)Nc1ccc(Cl)cc1` [Example 2.2, 3-[4-(2-pyrrolidin-1-ylethyl)phenyl]propynoic acid-4-chlorophenylamide], which melting point is on record?
A: 153 to 154 °C

Q: With `O=C(CCc1ccc(CN2CC[C@@H](O)C2)cc1)Nc1ccc(-c2ccc(Cl)cc2)cc1` [Example 6.29, N-(4′-chlorobiphenyl-4-yl)-3-[4-((R)-3-hydroxypyrrolidin-1-ylmethyl)phenyl]propionamide] as the compound, how does the melting point read?
A: 169 to 170 °C

Q: Which melting point does the source give for `CN(Cc1ccc(CCC(=O)Nc2ccc(-c3ccc(Cl)cc3)cc2)cc1)CC1CCOCC1` [Example 6.19, N-(4′-chlorobiphenyl-4-yl)-3-(4-{[methyl-(tetrahydropyran-4-ylmethyl)amino]methyl}phenyl)propionamide] here?
A: 162 to 163 °C

Q: For `O=C(CCc1ccc(CN2CC[C@H](O)C2)cc1)Nc1ccc(-c2ccc(Cl)cc2)cc1` [Example 6.7, N-(4′-chlorobiphenyl-4-yl)-3-[4-((S)-3-hydroxypyrrolidin-1-ylmethyl)phenyl]propionamide], which melting point is on record?
A: 171 to 172 °C

Q: With `COc1cc(NC(=O)C#Cc2ccc(C(F)(F)F)cc2Cl)ccc1OCCN1CCC(C(N)=O)CC1` [Example 4.276, 1-(2-{4-[3-(2-chloro-4-trifluoromethylphenyl)propynoylamino]-2-methoxyphenoxy}ethyl)piperidine-4-carboxylic acid amide] as the compound, how does the melting point read?
A: 150 °C

Q: With `O=C(C#Cc1ccc(CCN2CCCC2)cc1)Nc1ccc(-c2ccc(Cl)cc2)cc1` [Example 2.4, 3-[4-(2-pyrrolidin-1-ylethyl)phenyl]propynoic acid-(4′-chlorobiphenyl-4-yl)amide] as the compound, how does the melting point read?
A: 217 to 218 °C

Q: Which melting point does the source give for `CN(C(=O)C#Cc1ccc(CN2CCC(N3CCCC3)CC2)cc1)c1ccc(-c2ccc(Cl)cc2)cc1` (as salt: trifluoroacetate) [Example 1.24, 3-[4-(4-pyrrolidin-1-ylpiperidin-1-ylmethyl)phenyl]propynoic acid-(4′-chlorobiphenyl-4-yl)methylamideditrifluoroacetate] here?
A: 161 to 164 °C

Q: With `O=C(/C=C/c1ccc(CN(CCO)C2CCCCC2)cc1)Nc1ccc(-c2ccc(Cl)cc2)cc1` [Example 5.38, (E)-N-(4′-chlorobiphenyl-4-yl)-3-(4-{[cyclohexyl-(2-hydroxyethyl)amino]methyl}phenyl)acrylamide] as the compound, how does the melting point read?
A: 178 to 179 °C

Q: Which melting point does the source give for `O=C(CCc1ccc(CNCc2ccccc2)cc1)Nc1ccc(-c2ccc(Cl)cc2)cc1` [Example 6.38, 3-[4-(benzylaminomethyl)phenyl]-N-(4′-chlorobiphenyl-4-yl)propionamide] here?
A: 176 °C

Q: With `CCN(CC)CCOc1ccc(NC(=O)C#Cc2ccc(C(F)(F)F)cc2Cl)cc1` [Example 3.38, 3-(2-chloro-4-trifluoromethylphenyl)propynoic acid-[4-(2-diethylaminoethoxy)phenyl]amide] as the compound, how does the melting point read?
A: 194 to 197 °C

Q: For `COCCN(C)Cc1ccc(NC(=O)C#Cc2ccc(-c3ccc(Cl)cc3)cc2)cc1` [Example 3.11, 3-(4′-chlorobiphenyl-4-yl)propynoic acid-(4-{[(2-methoxyethyl)methylamino]methyl}phenyl)amide], which melting point is on record?
A: 130 to 133 °C

Q: For `CC1CC(C)CN(Cc2ccc(NC(=O)C#Cc3ccc(-c4ccc(Cl)cc4)cn3)cc2)C1` (stereo not drawn) [Example 3.29, 3-[5-(4-chlorophenyl)pyridin-2-yl]propynoic acid-[4-(3,5-dimethylpiperidin-1-ylmethyl)phenyl]amide], which melting point is on record?
A: 195 to 197 °C

Q: Which melting point does the source give for `NC(=O)C1CCN(Cc2ccc(/C=C/C(=O)Nc3ccc(-c4ccc(Cl)cc4)cc3)cc2)CC1` [Example 5.6, 1-{4-[(E)-2-(4′-chlorobiphenyl-4-ylcarbamoyl)vinyl]benzyl}piperidine-4-carboxylic acid amide] here?
A: 254 to 255 °C

Q: Which melting point does the source give for `CN(Cc1ccc(CCC(=O)Nc2ccc(-c3ccc(Cl)cc3)cc2)cc1)Cc1cccnc1` [Example 6.33, N-(4′-chlorobiphenyl-4-yl)-3-{4-[(methylpyridin-3-ylmethylamino)methyl]phenyl}propionamide] here?
A: 168 to 169 °C

Q: With `CC(C)Nc1ccc2cc(NC(=O)C#Cc3ccc(C(F)(F)F)cc3Cl)ccc2n1` [Example 7.2, 3-(2-chloro-4-trifluoromethylphenyl)propynoic acid-(2-isopropylaminoquinolin-6-yl)amide] as the compound, how does the melting point read?
A: 57 to 60 °C

Q: Which melting point does the source give for `CC1CCC(N(C)Cc2ccc(/C=C/C(=O)Nc3ccc(-c4ccc(Cl)cc4)cc3)cc2)CC1` (stereo not drawn) [Example 5.29, (E)-N-(4′-chlorobiphenyl-4-yl)-3-(4-{[methyl-(4-methylcyclohexyl)amino]methyl}phenyl)acrylamide] here?
A: 227 to 258 °C

Q: With `O=C(CCc1ccc(CNCCC2CCCCC2)cc1)Nc1ccc(-c2ccc(Cl)cc2)cc1` [Example 6.35, N-(4′-chlorobiphenyl-4-yl)-3-{4-[(cyclohexylethylamino)methyl]phenyl}propionamide] as the compound, how does the melting point read?
A: 149 to 150.5 °C

Q: With `COc1ccc(-c2ccc(NC(=O)CCc3ccc(CN4CCCC4)cc3)cc2)cc1` [Example 6.1, N-(4′-methoxybiphenyl-4-yl)-3-(4-pyrrolidin-1-ylmethylphenyl)propionamide] as the compound, how does the melting point read?
A: 185 to 188 °C

Q: Which melting point does the source give for `CCN(CC)CCOc1ccc(NC(=O)C#Cc2ccc(-c3ccc(Cl)cc3)cc2)cc1Cl.Cl` here?
A: 226 to 233 °C

Q: With `CN(Cc1ccccc1)Cc1ccc(CCC(=O)Nc2ccc(-c3ccc(Cl)cc3)cc2)cc1` [Example 6.18, 3-{4-[(benzylmethylamino)methyl]phenyl}-N-(4′-chlorobiphenyl-4-yl)propionamide] as the compound, how does the melting point read?
A: 174 to 175 °C

Q: With `C[C@@H]1C[C@H](C)CN(Cc2ccc(/C=C/C(=O)Nc3ccc(-c4ccc(Cl)cc4)cc3)cc2)C1` [Example 5.3, (E)-N-(4′-chlorobiphenyl-4-yl)-3-[4-(cis-3,5-dimethylpiperidin-1-ylmethyl)phenyl]acrylamide] as the compound, how does the melting point read?
A: 217 to 218 °C

Q: Which melting point does the source give for `CN(Cc1ccc(/C=C/C(=O)Nc2ccc(-c3ccc(Cl)cc3)cc2)cc1)CC1CC1` [Example 5.17, (E)-N-(4′-chlorobiphenyl-4-yl)-3-{4-[(cyclopropylmethylmethylamino)methyl]phenyl}acrylamide] here?
A: 246 to 247 °C

Q: Which melting point does the source give for `O=C(C#Cc1ccc(-c2ccc(Cl)cc2)cc1)Nc1ccc(CN2CCCCC2)c(Cl)c1` [Example 3.20, 3-(4′-chlorobiphenyl-4-yl)propynoic acid-(3-chloro-4-piperidin-1-ylmethylphenyl)amide] here?
A: 277 to 281 °C

Q: With `CC1CCN(C2(c3ccc(C#CC(=O)Nc4ccc(-c5ccc(Cl)cc5)cc4)cc3)CC2)CC1` [Example 1.424, 3-{4-[1-(4-methylpiperidin-1-yl)cyclopropyl]phenyl}propynoic acid(4′-chlorobiphenyl-4-yl)amide] as the compound, how does the melting point read?
A: 128 to 129 °C

Q: For `COCCN(Cc1ccc(/C=C/C(=O)Nc2ccc(-c3ccc(Cl)cc3)cc2)cc1)CC(C)(C)O` [Example 5.27, (E)-N-(4′-chlorobiphenyl-4-yl)-3-(4-{[(2-hydroxy-2-methylpropyl)-(2-methoxyethyl)amino]methyl}phenyl)acrylamide], which melting point is on record?
A: 125 to 126 °C

Q: Which melting point does the source give for `O=C(C#Cc1ccc(Cl)cc1Cl)Nc1ccc2oc(CCN3CCCC3)nc2c1` [Example 4.12, 3-(2,4-dichlorophenyl)propynoic acid-[2-(2-pyrrolidin-1-ylethyl)benzoxazol-5-yl]amide] here?
A: 130 °C
